Measurements reported in ChEMBL document CHEMBL1201862, “PubChem BioAssay data set” (2004).
Calls of active or inactive are those of the source. Cut-off read from the data, not from the text of the source, for most assays here: actives have a measured EC50 and inactives only a lower limit.

Columns and labels:
[1] = molecular target: T1, Polyadenylate-binding protein 1 (Homo sapiens, UniProt P11940); assay: PABP1 MLLE–PAM2 interaction inhibitors, dose response, miRNA deadenylation inhibitor project, biochemical, fluorescence polarization, Cy5-PAM2 peptide, secondary (AID 602260); assay type: functional; settings: read-out: IC50_Mean
[2] = molecular target: T1, Polyadenylate-binding protein 1; assay: PABP1 MLLE–PAM2 binding inhibitor potency, dose response, biochemical, fluorescence polarization, FITC-PAM2 peptide (AID 602259); assay type: functional; settings: read-out: IC50_Mean
[3] = cells; assay type: functional, cell-based
[4] = cells; assay type: functional, cell-based; remark: listed apart in the source
[5] = Luminescence Cell-Based Dose Confirmation HTS to Identify Inhibitors of Platelet Dense Granule Release. [Related pubchem assays: 1663 (Primary HTS), 1678 (Summary of Project)]; assay type: functional
[6] = Luminescence Cell-Based Dose Confirmation HTS to Identify Activators of 5'UTR Stem-Loop Driven Alpha-Synuclein mRNA Translation in H4 Neuroglioblastoma Cells. [Related pubchem assays: 1829 (Project Summary), 1814 (Primary HTS)]; assay type: functional
[7] = Luminescence Cell-Based Dose Response HTS to Identify Activators of Luciferase Translation or Activity in H4 […] Cells. [Related pubchem assays: 1829 (Project Summary), 1814 (Primary HTS)]; assay type: functional
[8] = test system: H4; assay: Luminescence Cell-Based Dose Response HTS to Identify Activators of 5'UTR Stem-Loop Driven Prion Protein mRNA Translation in H4 Neuroglioblastoma Cells. [Related pubchem assays: 1829 (Project Summary), 1814 (Primary HTS)]; assay type: functional; settings: Homo sapiens
[9] = molecular target: Luciferin 4-monooxygenase (Photinus pyralis, UniProt P08659); assay: firefly luciferase enzyme inhibitors, dose response, biochemical, luminescence (AID 1891)
[10] = HepG2 cell cytotoxicity, dose response, cytotoxicity control for Shn3 inhibitor project, CellTiter-Glo, cherry-picked (AID 624134); assay type: functional, cell-based
[11] = Shn3 3'UTR reporter inhibitors, dose response, cell-based, Clone20 osteoblasts, firefly luciferase, cherry-picked (AID 624132); assay type: functional;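 note: firefly luciferase luminescence from reporter carrying the Shn3 3'UTR in osteoblasts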
[12] = control 3'UTR Renilla luciferase suppression, dose response, counter-screen for Shn3 inhibitor project, cell-based, Clone20-Shn3RL, cherry-picked (AID 624133); assay type: functional
[13] = NIH-3T3 fibroblast cytotoxicity, dose response, cytotoxicity control, cell-based, fluorescence, Alamar Blue, secondary assay (AID 2327); assay type: functional;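 note: NIH-3T3 mouse fibroblasts cultured with fluconazole at 8 µg/mL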
[14] = C. albicans growth with fluconazole, confirmation, fluorescence, retest (AID 2467); assay type: functional, cell-based
[15] = molecular target: T2, Replicative DNA helicase DnaB (Mycobacterium tuberculosis, UniProt P9WMR3); assay: DnaB intein splicing inhibitors, dose response, biochemical, cell-free fluorescence (AID 449749); assay type: functional
T2 sequence (P9WMR3 whole entry): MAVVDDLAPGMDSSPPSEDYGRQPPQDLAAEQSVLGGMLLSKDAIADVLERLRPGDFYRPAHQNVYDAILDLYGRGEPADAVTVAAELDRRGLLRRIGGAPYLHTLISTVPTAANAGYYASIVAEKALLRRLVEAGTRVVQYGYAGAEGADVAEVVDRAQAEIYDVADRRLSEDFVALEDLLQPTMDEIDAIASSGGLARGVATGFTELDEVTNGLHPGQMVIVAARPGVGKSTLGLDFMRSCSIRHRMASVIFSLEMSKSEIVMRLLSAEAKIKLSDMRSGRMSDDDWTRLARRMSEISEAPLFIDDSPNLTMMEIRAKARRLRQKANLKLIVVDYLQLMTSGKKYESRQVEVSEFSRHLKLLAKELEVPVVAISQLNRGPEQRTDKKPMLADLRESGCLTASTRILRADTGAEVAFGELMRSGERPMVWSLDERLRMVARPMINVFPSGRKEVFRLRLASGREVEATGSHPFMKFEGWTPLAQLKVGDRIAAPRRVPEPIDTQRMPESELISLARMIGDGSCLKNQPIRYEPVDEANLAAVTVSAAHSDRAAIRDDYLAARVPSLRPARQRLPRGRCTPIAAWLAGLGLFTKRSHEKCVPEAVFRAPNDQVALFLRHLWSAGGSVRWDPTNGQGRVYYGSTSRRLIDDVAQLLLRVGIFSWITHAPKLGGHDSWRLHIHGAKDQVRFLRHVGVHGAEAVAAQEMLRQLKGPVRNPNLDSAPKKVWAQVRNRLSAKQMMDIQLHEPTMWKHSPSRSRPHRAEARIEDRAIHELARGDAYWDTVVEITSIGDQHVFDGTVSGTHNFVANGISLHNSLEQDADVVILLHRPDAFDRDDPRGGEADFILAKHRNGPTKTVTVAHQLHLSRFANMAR

[16] = molecular target: T3, Protein RecA (Mycobacterium tuberculosis, UniProt P9WHJ3); assay: Fluorescence Cell-Free Homogeneous Dose Retest to Identify Inhibitors of RecA-Intein Splicing Activity. [Related pubchem assays (depositor defined):AID2097, AID2223, AID489010, AID492950]; assay type: functional
T3 sequence (P9WHJ3 whole entry): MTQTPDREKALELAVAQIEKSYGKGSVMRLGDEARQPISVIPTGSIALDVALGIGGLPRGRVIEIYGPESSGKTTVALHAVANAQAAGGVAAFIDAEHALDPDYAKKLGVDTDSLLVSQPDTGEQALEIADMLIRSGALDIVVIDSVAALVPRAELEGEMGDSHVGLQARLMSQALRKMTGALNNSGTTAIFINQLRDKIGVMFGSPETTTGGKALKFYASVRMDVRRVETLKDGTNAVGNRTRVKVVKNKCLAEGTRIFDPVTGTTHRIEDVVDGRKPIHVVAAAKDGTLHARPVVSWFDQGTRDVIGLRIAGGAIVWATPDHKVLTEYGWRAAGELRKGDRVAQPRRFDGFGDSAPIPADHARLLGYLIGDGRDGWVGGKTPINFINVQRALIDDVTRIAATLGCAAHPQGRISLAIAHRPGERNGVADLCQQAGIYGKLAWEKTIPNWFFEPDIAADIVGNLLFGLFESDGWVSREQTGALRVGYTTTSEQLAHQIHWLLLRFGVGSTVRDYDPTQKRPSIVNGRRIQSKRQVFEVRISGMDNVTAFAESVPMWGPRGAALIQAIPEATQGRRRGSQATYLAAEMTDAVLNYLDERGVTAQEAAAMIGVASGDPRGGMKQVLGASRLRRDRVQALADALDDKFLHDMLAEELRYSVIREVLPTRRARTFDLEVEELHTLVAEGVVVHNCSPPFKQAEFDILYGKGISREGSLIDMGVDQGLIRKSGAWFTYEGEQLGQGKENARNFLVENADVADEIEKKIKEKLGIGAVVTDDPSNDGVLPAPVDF

[17] = molecular target: T4, Heat shock factor protein 1 (Mus musculus, UniProt P38532); assay: inhibition of MG132-induced HSE-luciferase signal, confirmation, cell-based, NIH3T3, luminescence, dose retest (AID 2382); assay type: functional;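 note: NIH3T3 fibroblasts with HSF1-driven luciferase reporter stressed by proteasome inhibitor MG132; luminescence from HSF1-driven luciferase expression after 8 hours of MG132 stress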
T4 sequence (P38532 whole entry): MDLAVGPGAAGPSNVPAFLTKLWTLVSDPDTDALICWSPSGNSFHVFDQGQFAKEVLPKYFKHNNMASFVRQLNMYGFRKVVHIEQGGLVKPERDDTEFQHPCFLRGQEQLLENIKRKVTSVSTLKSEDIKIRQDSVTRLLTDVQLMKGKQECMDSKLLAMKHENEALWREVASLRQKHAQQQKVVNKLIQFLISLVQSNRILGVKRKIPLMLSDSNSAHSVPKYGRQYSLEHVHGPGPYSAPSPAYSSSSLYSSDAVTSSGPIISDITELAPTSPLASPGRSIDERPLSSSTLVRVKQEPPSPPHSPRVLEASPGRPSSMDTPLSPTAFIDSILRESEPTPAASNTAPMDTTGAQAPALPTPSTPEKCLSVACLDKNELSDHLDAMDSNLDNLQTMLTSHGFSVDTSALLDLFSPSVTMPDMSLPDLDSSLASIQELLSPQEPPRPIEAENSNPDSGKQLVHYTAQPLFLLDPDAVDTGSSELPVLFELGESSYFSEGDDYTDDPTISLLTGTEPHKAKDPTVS

T1 sequence (P11940 whole entry): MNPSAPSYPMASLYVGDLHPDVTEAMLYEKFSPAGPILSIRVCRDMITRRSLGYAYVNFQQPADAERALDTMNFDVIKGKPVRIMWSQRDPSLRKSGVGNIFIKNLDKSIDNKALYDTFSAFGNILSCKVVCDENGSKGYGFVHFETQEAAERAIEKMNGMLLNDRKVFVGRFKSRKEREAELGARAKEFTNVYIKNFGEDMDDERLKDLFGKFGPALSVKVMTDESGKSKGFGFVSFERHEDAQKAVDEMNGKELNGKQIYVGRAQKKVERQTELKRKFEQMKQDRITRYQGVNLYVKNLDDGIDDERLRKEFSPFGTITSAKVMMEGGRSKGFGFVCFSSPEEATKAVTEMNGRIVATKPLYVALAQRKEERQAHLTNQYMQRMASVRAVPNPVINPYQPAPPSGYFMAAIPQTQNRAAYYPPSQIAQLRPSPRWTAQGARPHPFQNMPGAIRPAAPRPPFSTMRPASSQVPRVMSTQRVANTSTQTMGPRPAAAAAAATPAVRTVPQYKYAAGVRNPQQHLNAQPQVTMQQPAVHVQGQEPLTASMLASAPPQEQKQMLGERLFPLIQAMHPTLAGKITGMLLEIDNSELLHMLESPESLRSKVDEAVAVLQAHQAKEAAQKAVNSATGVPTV
Luciferin 4-monooxygenase, sequence (P08659 whole entry): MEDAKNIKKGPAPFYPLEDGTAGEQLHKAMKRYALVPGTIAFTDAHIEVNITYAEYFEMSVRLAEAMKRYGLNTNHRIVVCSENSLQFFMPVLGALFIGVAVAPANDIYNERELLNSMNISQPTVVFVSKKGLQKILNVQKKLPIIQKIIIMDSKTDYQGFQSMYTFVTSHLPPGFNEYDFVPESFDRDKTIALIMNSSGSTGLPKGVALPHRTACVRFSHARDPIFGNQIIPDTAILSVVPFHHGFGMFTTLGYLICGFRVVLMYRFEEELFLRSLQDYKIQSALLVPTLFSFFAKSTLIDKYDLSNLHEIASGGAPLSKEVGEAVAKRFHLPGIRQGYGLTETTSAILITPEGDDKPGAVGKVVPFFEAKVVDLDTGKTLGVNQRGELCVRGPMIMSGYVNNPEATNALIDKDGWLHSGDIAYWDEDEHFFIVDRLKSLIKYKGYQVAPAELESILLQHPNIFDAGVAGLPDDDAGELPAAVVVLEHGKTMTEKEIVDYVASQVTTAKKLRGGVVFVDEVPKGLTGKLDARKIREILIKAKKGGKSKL

Structure (SMILES): NS(=O)(=O)c1ccc(NC(=S)NC(=O)c2ccc(-c3ccccc3)cc2)cc1
- IC50 [1]: > 66 µM (inactive)
- IC50 [2]: > 66 µM (inactive)

Structure (SMILES): Cc1ccc(CN(CC(=O)NC2CCCC2)C(=O)CSc2nnc(COc3ccccc3)o2)cc1
- IC50 [1]: > 66 µM (inactive)
- IC50 [2]: > 66 µM (inactive)

Structure (SMILES): O=C(Cn1c(SCC(=O)N2CCCc3ccccc32)nc2ccccc21)N1CCCC1
- EC50 [3]: > 350 µM (not active)
- EC50 [4]: > 350 µM (not active)

Structure (SMILES): CCCc1nc2oc3c(O)ncnc3c2c2c1CCCC2
- EC50 [5]: > 112 µM (not active)

Structure (SMILES): C1=C(CCNc2[nH]cnc3ncnc2-3)CCCC1
- EC50 [6]: 52.3 µM (active)
- EC50 [7]: 20 µM (active)
- EC50 [8]: 40 µM (active)

Structure (SMILES): CCOc1ccc(NC(=O)CSc2nnc(Cn3cnc4ccccc43)n2C)cc1
- EC50 [3]: > 350 µM (not active)
- EC50 [4]: > 350 µM (not active)

Structure (SMILES): Cc1ccc2c(c1)sc(C)[n+]2CCCS(=O)(=O)[O-]
- IC50 [1]: > 66 µM (inactive)
- IC50 [2]: > 66 µM (inactive)

Structure (SMILES): CCCCCCC1CCC(c2nc(-c3ccncc3)no2)CC1 (stereo not given)
- EC50 [3]: > 350 µM (not active)
- EC50 [4]: > 350 µM (not active)

Structure (SMILES): CC(NC(=O)CCc1nc2cc(S(=O)(=O)N3CCOCC3)ccc2n1C)c1ccc(S(N)(=O)=O)cc1 (stereo not given)
- EC50 [9]: > 112 µM (not active)
- EC50 [5]: 41.7 µM (active)

Structure (SMILES): CCOC(=O)C1=C(CNCc2ccccc2Cl)NC(=O)NC1c1cccc([N+](=O)[O-])c1 (stereo not given)
- EC50 [9]: > 112 µM (not active)
- EC50 [5]: > 112 µM (not active)

Structure (SMILES): CCN(CC)S(=O)(=O)c1ccc(N(C)Cc2cccc(OC)c2OC)nc1
- AC50 [10]: 57.1 µM (active)

Structure (SMILES): Cc1nnsc1[S+]([O-])c1ccc(Br)cc1 (stereo not given)
- EC50 [6]: 21.9 µM (active)
- EC50 [7]: 6.67 µM (active)
- EC50 [8]: > 120 µM (not active)

Structure (SMILES): CC12CC3(C)CC(C)(C1)CC(C(=O)NC(=S)NC(C)(C)C)(C2)C3
- IC50 [1]: > 66 µM (inactive)
- IC50 [2]: > 66 µM (inactive)

Structure (SMILES): Cc1ccc(CC(=O)Nc2ccncc2)cc1
- AC50 [11]: 2.39 µM (active)
- AC50 [10]: 3.99 µM (active)
- AC50 [12]: 15.2 µM (active)

Structure (SMILES): CCOC(=O)C1CCCN(C(=O)c2ccc3oc(CCc4ccccc4)nc3c2)C1 (stereo not given)
- EC50 [13]: > 150 µM (inactive)
- EC50 [3]: > 350 µM (not active)
- EC50 [14]: > 38 µM (not active)
- EC50 [4]: > 350 µM (not active)

Structure (SMILES): Clc1ccc(Nc2nc3cccnc3s2)cc1
- EC50 [6]: 0.341 µM (active)
- EC50 [7]: 0.333 µM (active)

Structure (SMILES): O=S(=O)(CCSc1nc2ccccc2s1)c1nc2ccccc2s1
- EC50 [3]: > 350 µM (not active)
- EC50 [4]: > 350 µM (not active)
- AC50 [15]: 2.29 µM (active)
- EC50 [16]: 2.22 µM (active)

Structure (SMILES): COC(=O)C(NC(=O)c1c(C)nn(C)c1Cl)c1ccccc1 (stereo not given)
- EC50 [3]: > 350 µM (not active)
- EC50 [4]: > 350 µM (not active)

Structure (SMILES): Cn1nnc(NC(=O)c2cccc([N+](=O)[O-])c2)n1
- EC50 [3]: > 350 µM (not active)
- EC50 [4]: > 350 µM (not active)

Structure (SMILES): Cc1ccc(C2CCN(C(S)=NC(C)(C)C)C2)cc1 (stereo not given)
- EC50 [6]: 14.9 µM (active)
- EC50 [7]: 18.1 µM (active)
- EC50 [8]: 62.4 µM (active)
- EC50 [17]: > 195 µM (not active)

Structure (SMILES): COC(=O)C1=C(C(=O)OC)[C@@H]2N(Cc3ccccc3)c3ccccc3[C@@]23C[C@@H](C(=O)OC)N(C(=O)c2ccc(Br)cc2)C3=N1
- AC50 [11]: 8.52 µM (active)
- AC50 [10]: 34.8 µM (active)
- AC50 [12]: 23.7 µM (active)

Structure (SMILES): CC(C)COc1ccc(C(=O)Nc2ccc([N+](=O)[O-])cc2)cc1
- EC50 [3]: > 350 µM (not active)
- EC50 [4]: > 350 µM (not active)

Structure (SMILES): COc1cccc(OCCn2cc(C(C)=O)c3ccccc32)c1
- AC50 [11]: 1.85 µM (active)
- AC50 [10]: 7.55 µM (active)
- AC50 [12]: 7.82 µM (active)

Structure (SMILES): O=C(Nc1ccccc1[N+](=O)[O-])c1ccc(S(=O)(=O)N2CCCC2)cc1
- EC50 [6]: 10.8 µM (active)
- EC50 [7]: 9.21 µM (active)
- EC50 [8]: 14.6 µM (active)

Structure (SMILES): CCc1nc2scc(-c3cccs3)c2c(=O)o1
- EC50 [9]: > 112 µM (not active)
- EC50 [5]: > 112 µM (not active)

Structure (SMILES): COc1cc(C)c(NC(=O)COc2cccc3c2OC(C)(C)C3)cc1OC
- AC50 [11]: 7.06 µM (active)
- AC50 [10]: 65.7 µM (active)
- AC50 [12]: 11.3 µM (active)

Structure (SMILES): C/C(=N\NC(=O)c1ccc2c(c1)OCCO2)c1ccccc1
- EC50 [9]: 12.8 µM (active)
- EC50 [5]: 2.98 µM (active)
